According to patent US20120301895A1, “METHODS OF MODULATING BINDING OF SON OF SEVENLESS TO PHOSPHATIDIC ACID AND IDENTIFYING COMPOUNDS THAT MODULATE SUCH BINDING” (THE RESEARCH FOUNDATION OF STATE UNIVERSITY OF NEW YORK, priority 2007, published 2012):

Tests used:
[1] = tested on: Ras; assay: Ras activation pull-down assay in Cos1 cells transfected with HA-tagged Ras and Sos; type: cell-based
Protocol: In FIG. 14A, MDA-MB-231 cells were plated and then placed in media containing 0.5% media 24 hr later. 24 hr later, the cells were treated with either DMSO or honokiol (20 μM) as indicated for 2 hr. At this point the cells were harvested and lysates were prepared and treated with the immobilized Ras binding domain of Raf1 as in FIGS. 12A-C. Ras-GTP bound to the Raf1 binding domain was recovered and subjected to Western blot analysis using the Pan-Ras antibody. Total Ras in the cell lysates and actin levels were also examined by Western blot analysis. In FIG. 14B, MDA-MB-231 cells were plated and 24 hr later were shifted to media containing 0.5% serum. The cells were then treated with EGF (200 ng/ml) for 10 min. The cells were also treated with honokiol (20 μM) prior to the addition of EGF for the times indicated. The levels of GTP-bound Ras, total Ras, and actin were then determined as in FIG. 14A. In FIG. 14C, Cos1 cells were transfected with plasmids expressing HA-tagged Ras (50 ng) and Sos (500 ng) for 24 hours. The cells were placed in serum free media overnight in the presence of increasing concentration of honokiol. Cells were then collected and Ras activation was determined using the pull-down assay as above. Levels of Ras-GTP, Sos, and Ras were determined by Western blot analysis using an antibody that recognized HA. In FIG. 14D, Cos1 cells were tranfected with the plasmid expressing HA-tagged Ras (50 ng) for 24 hours. […] Cells were then stimulated with 100 ng/ml EGF for the indicated times (min) and Ras activation was determined as in FIG. 14A. […] Cells were then stimulated with 100 ng/ml EGF for the indicated times (min) and Ras activation was determined as in FIG. 14A. […]
To further establish that honokiol was suppressing Ras activation, the effect in Cos1 cells was examined where background Ras activation was lower. […] 24 hr later, the cells were then shifted to serum-free conditions in the presence of increasing concentrations of honokiol and the levels of Ras, Sos, and GTP-bound Ras was evaluated. […]

[2] = tested on: MDA-MB-231 cells; assay: Cell viability (trypan blue) and PARP cleavage in MDA-MB-231 cells; type: cell-based, human; conditions: honokiol 20 μM
Protocol: MDA-MB-231 cells were plated in DMEM with 10% serum for 48 hr then changed to DMEM with either 10% or 0.5% serum overnight as indicated. Honokiol (20 μM) or control ethanol was then added either at the time of changing media (24 hr time point), or 4 hr prior to harvesting (4 hr time point) as indicated. The cells were then examined for cell viability and PARP cleavage as described previously (Chen et al., “Alternative Phospholipase D/mTOR Survival Signal in Human Breast Cancer Cells,” Oncogene 24:672-9 (2005), which is hereby incorporated by reference in its entirety). The Western blot is representative of at least three independent experiments. The error bars for cell viability represent the standard deviation for triplicate samples from a representative experiment repeated three times.
Cell viability was determined by trypan blue exclusion. After various treatments, cells were harvested, washed, and treated with trypan blue at a concentration of 0.4% w/v. After 10 min, trypan blue uptake (dead cells) was determined by counting on a hemocytometer. Apoptosis was evaluated by examination of cleavage of the caspase 3 substrate PARP as described previously (Chen et al., “Alternative Phospholipase D/mTOR Survival Signal in Human Breast Cancer Cells,” Oncogene 24:672-9 (2005), which is hereby incorporated by reference in its entirety).
The effect of honokiol on cell viability and cleavage of the caspase 3 substrate poly-(ADP-ribose) polymerase (“PARP”)—an indicator of apoptotic cell death—was examined in the MDA-MB-231 and 786-0 cells. The effect of honokiol on cell viability and PARP cleavage in 0.5% serum was examined after 4 hr and 24 hr honokiol treatment and in 10% serum after 24 hr honokiol treatment in the MDA-MB-231 cells. […] Importantly, the cells were still viable after 4 hr of honokiol treatment—the time point used in FIGS. 12 and 13 where the effect of honokiol upon PLD activity and on S6K and 4E-BP1 phosphorylation was examined.

[3] = tested on: tumor growth; conditions: Bai et al. 2003; cited from earlier work
[4] = tested on: B-cell chronic lymphocytic leukemia cells; conditions: Battle et al. 2005; cited from earlier work
[5] = tested on: human prostate cancer cells; conditions: Shigemura et al. 2007; cited from earlier work

**Q.** Which results are given for `C=CCc1ccc(O)c(-c2ccc(O)c(CC=C)c2)c1` [honokiol, Honokiol]?
**A.** Ras-GTP levels ([1]; Cos1 cells with excess Sos, serum free overnight, at concentrations of 20 μM and higher): strongly suppressed; ability of EGF to increase the level of GTP-bound Ras ([1]; Cos1 cells, endogenous Sos, ectopic Ras, honokiol 50 μM, EGF 100 ng/ml): suppressed; effect on EGF-induced Ras activation when ectopically expressed Sos was introduced ([1]; Cos1 cells, honokiol 50 μM, EGF 100 ng/ml): more pronounced; cell viability ([2]; 4 hr, 0.5% serum): still viable; PARP cleavage ([2]; 24 hr, 0.5% serum): increased; cell viability ([2]; 24 hr, 0.5% serum): reduced; PARP cleavage increased ([2]; 24 hr, 10% serum): not; cell viability reduced ([2]; 24 hr, 10% serum): not; tumor growth in mouse xenografts [3]: blocked tumor growth; apoptosis in B-CLL cells [4]: induce caspase-dependent apoptosis; bone metastatic growth of human prostate cancer cells [5]: inhibit the bone metastatic growth
